The target of test [1] is T1, Amine oxidase [flavin-containing] A (Homo sapiens, UniProt P21397).
T1 sequence (P21397 whole entry): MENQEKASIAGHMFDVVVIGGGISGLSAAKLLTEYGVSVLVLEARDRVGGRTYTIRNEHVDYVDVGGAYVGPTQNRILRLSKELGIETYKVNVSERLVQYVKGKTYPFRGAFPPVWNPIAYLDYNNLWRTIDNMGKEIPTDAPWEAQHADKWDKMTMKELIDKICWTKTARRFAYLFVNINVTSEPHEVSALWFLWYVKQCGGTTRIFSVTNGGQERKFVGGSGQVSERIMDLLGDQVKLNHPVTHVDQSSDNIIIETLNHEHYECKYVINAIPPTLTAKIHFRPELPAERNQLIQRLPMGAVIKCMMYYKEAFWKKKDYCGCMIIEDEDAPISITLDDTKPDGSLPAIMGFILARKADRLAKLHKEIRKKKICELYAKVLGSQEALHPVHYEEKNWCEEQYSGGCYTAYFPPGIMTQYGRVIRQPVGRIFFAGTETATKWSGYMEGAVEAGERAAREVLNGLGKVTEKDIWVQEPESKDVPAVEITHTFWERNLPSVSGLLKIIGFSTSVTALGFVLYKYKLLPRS
The experiment in a line: Inhibition of recombinant human MAO-A using kynuramine as substrate assessed as inhibition of 4-hydroxyquinoline formation incubated for 20 mins by fluorescence spectrophotometric analysis.

Test [2] deals with T2, Amine oxidase [flavin-containing] B (Homo sapiens, UniProt P27338).
T2 sequence (P27338 whole entry): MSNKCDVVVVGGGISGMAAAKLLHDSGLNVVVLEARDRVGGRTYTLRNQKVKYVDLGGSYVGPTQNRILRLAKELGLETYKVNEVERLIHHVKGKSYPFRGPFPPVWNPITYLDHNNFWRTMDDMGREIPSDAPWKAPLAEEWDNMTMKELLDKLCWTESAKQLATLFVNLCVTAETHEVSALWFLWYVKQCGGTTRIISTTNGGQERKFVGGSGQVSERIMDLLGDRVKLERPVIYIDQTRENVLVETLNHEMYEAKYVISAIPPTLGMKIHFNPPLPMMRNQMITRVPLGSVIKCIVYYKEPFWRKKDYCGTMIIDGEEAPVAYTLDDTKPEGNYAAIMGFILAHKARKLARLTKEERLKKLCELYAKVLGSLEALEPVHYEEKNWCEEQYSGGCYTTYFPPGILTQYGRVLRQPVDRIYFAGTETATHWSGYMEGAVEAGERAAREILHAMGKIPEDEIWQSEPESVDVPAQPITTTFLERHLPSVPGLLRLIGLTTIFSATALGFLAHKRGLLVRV

For test [3], the target named is T2, Amine oxidase [flavin-containing] B. The experiment in a line: Competitive inhibition of recombinant human MAO-B using kynuramine as substrate assessed as enzyme-inhibitor dissociation constant at varying substrate concentration by Lineweaver-burk plot analysis.
For test [4], the target named is D-amino-acid oxidase (Sus scrofa, UniProt P00371). In words: Inhibition of porcine kidney DAAO using D-serine as substrate assessed as H2O2 formation by amplex red and peroxidase-coupled continuous fluorescence spectrophotometric analysis.

Consider 11 compounds from ChEMBL document CHEMBL5150027, “The inhibition of monoamine oxidase by 2H-1,4-benzothiazin-3(4H)-ones” (Bioorg Med Chem Lett, 2022).

Chain of D-amino-acid oxidase (P00371 whole entry): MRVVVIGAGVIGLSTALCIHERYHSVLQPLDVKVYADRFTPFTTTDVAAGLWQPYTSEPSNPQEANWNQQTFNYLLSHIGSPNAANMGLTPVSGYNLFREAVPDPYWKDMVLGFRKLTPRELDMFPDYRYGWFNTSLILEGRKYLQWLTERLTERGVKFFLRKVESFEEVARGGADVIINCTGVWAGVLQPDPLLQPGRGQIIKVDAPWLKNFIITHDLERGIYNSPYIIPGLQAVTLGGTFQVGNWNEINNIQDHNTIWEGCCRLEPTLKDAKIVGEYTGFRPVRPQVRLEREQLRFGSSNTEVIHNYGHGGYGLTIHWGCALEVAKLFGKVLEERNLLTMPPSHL

On to `N#Cc1ccc(COc2ccc3c(c2)SCC(=O)N3)cc1`, for which the IC50 in test [1] was 0.714 µM; in test [2], 0.0096 µM; in test [4] it was 47.5 µM. The Ki in test [3] was 0.0067 µM.
For `CCCOc1ccc2c(c1)SCC(=O)N2`, the 50% inhibitory concentration (IC50) in test [1] was found to be 6.51 µM; in test [2], 2.87 µM.
As for `O=C1CSc2cc(OCc3ccc(Cl)cc3)ccc2N1`, the IC50 in test [1] worked out at 24.4 µM; in test [2], 0.0027 µM; in test [4], 73.2 µM.
As to `O=C1CSc2cc(O)ccc2N1`, the IC50 is 19.2 µM in test [1], 20 µM in test [2] and 4.2 µM in test [4].
In the case of `O=C1CSc2cc(OCC3CCCCC3)ccc2N1`, the IC50 in test [1] is 1.17 µM; in test [2], 0.024 µM.
In test [2], `Cc1ccc(COc2ccc3c(c2)SCC(=O)N3)cc1` showed a half-inhibitory concentration (IC50) of 0.0082 µM.
As for `O=C1CSc2cc(OCCCc3ccccc3)ccc2N1`, the IC50 in test [1] came to 96.8 µM; in test [2] it was 0.02 µM.
As for `O=C1CSc2cc(OCCc3ccccc3)ccc2N1`, the results for the IC50 in test [1] and in test [2] were 13.1 µM and 0.167 µM, respectively.
As to `O=C1CSc2cc(OCc3ccc(Br)cc3)ccc2N1`, the IC50 in test [1] was 15.6 µM; in test [2], 0.0041 µM.
The like results for `O=C1CSc2cc(OCc3ccccc3)ccc2N1` were, in that order, 8.06 µM and 0.071 µM.
On the same counts, the results for `COc1ccc2c(c1)SCC(=O)N2` are 21.1 µM and 42.6 µM.

In general, IC50 refers to the concentration that gives 50% inhibition. Usually Ki stands for the equilibrium dissociation constant of an inhibitor or competing ligand from its target.
